The target of series [1] is T1, Replicase polyprotein 1ab (Severe acute respiratory syndrome coronavirus 2, UniProt P0DTD1). Description: Inhibition of SARS CoV-2 PL protease.
Series [2] can be described thus: Half life in Beagle dog at 5 mg/kg, iv measured after up to 24 hrs by LC-MS/MS analysis. It is filed as ADME, organism-based, Canis lupus familiaris. Particulars: in vivo.
A short description of series [3]: Half life in Sprague-Dawley rat at 10 mg/kg, iv measured after up to 24 hrs by LC-MS/MS analysis. It is filed as ADME, organism-based. Particulars: in vivo.
Series [4] is described as follows: Clearance in CD-1 mouse at 5 mg/kg, iv measured after up to 24 hrs by LC-MS/MS analysis. It is filed as ADME, organism-based. Particulars: in vivo.
Series [5] can be described thus: Half life in CD-1 mouse at 5 mg/kg, iv measured after up to 24 hrs by LC-MS/MS analysis. Particulars: in vivo. It is filed as ADME, organism-based.
Series [6] in a line: Clearance in Beagle dog at 5 mg/kg, iv measured after up to 24 hrs by LC-MS/MS analysis. It is filed as ADME, organism-based, Canis lupus familiaris. Particulars: in vivo.
Series [7] relates to SARS-CoV-2. Nature of the series: Antiviral activity against SARS CoV-2 infected in African green monkey Vero cells assessed as inhibition of plaque formation by viral plaque assay. In kind it is functional, organism-based. Particulars: Severe acute respiratory syndrome coronavirus 2, Vero.
Series [8] is described as follows: AUClast in Sprague-Dawley rat at 10 mg/kg, iv measured after up to 24 hrs by LC-MS/MS analysis. In kind it is ADME, organism-based. Also noted: time < 24 hrs, dose 10 mg/kg, route iv. Particulars: in vivo.
A short description of series [9]: AUClast in Beagle dog at 5 mg/kg, iv measured after up to 24 hrs by LC-MS/MS analysis. It is filed as ADME, organism-based, Canis lupus familiaris. The arrangement: time < 24 hrs, dose 5 mg/kg, route iv. Particulars: in vivo.
Series [10] in a line: Cytotoxicity against African green monkey Vero E6 cells by CCK-8 assay. In kind it is toxicity, cell-based, Vero C1008. Particulars: chlorocebus sabaeus.
Series [11] in a line: Cmax in CD-1 mouse at 5 mg/kg, iv measured after up to 24 hrs by LC-MS/MS analysis. It is filed as ADME, organism-based. The arrangement: dose 5 mg/kg, time < 24 hrs, route iv. Particulars: in vivo.
Series [12] can be described thus: Clearance in Sprague-Dawley rat at 10 mg/kg, iv measured after up to 24 hrs by LC-MS/MS analysis. In kind it is ADME, organism-based. Particulars: in vivo.
A short description of series [13]: Bioavailability in CD-1 mouse at 5 mg/kg, iv measured after up to 24 hrs by LC-MS/MS analysis. It is filed as ADME, organism-based. Particulars: in vivo.
The target in series [14] is T1, Replicase polyprotein 1ab. Nature of the series: Inhibition of N-terminal recombinant SARS CoV 2 3CL protease expressed in Escherichia coli BL21-DE3 cells using MCA-AVLQSGFR-Lys(Dnp)-Lys-NH2 as substrate by FRET assay.
The test system of series [15] is SARS-CoV-2. Description: Antiviral activity against SARS CoV-2 infected in human Calu-3 cells measured after 24 hrs by qRT-PCR analysis. In kind it is functional, organism-based. Particulars: Severe acute respiratory syndrome coronavirus 2, Calu-3, 24 h.
Series [16] concerns the target T1, Replicase polyprotein 1ab. Description: Inhibition of C-terminal 6-His-tagged recombinant SARS CoV-2 3CL protease expressed in Escherichia coli BL21-Gold DE3 cells by FRET assay.
Series [17] can be described thus: Cytotoxicity against African green monkey Vero E6 cells incubated for 3 hrs by CCK-8 assay. In kind it is toxicity, cell-based, Vero C1008. Particulars: chlorocebus sabaeus.
The nature of series [18]: Half life in CD1 mouse at 500 mg/kg, po administered as single dose by LC-MS/MS analysis. Particulars: in vivo. In kind it is ADME, organism-based.
Series [19] in a line: Drug distribution in CD1 mouse liver at 150 to 500 mg/kg, po measured after 8 hrs by LC-MS/MS analysis. In kind it is ADME, organism-based. Particulars: in vivo, dose 150-500 mg/kg.
For another series, the system named is SARS-CoV. Description: Antiviral activity against […] infected in HAE cells incubated for 48 hrs by qRT-PCR analysis. It is filed as functional, organism-based.
A short description of series [20]: Half life in CD1 mouse at 150 mg/kg, po administered as single dose by LC-MS/MS analysis. Particulars: in vivo. In kind it is ADME, organism-based.
Series [21] can be described thus: Oral bioavailability in CD1 mouse at 150 mg/kg administered as single dose by LC-MS/MS analysis. In kind it is ADME, organism-based. Particulars: in vivo.
The test system of series [22] is SARS-CoV-2. Description: Antiviral activity against SARS CoV-2 clinical isolate 2019-nCoV/USA-WA1/2020 infected in human Calu-3 cells measured after 72 hrs by plaque assay. It is filed as functional, organism-based. Particulars: Severe acute respiratory syndrome coronavirus 2, 2019-nCoV/USA-WA1/2020, Calu-3, 72 h.
Series [23] in a line: Oral bioavailability in CD1 mouse at 50 mg/kg administered as single dose by LC-MS/MS analysis. It is filed as ADME, organism-based. Particulars: in vivo.
Series [24] has as its system SARS-CoV-2. Nature of the series: Antiviral activity against SARS CoV-2 clinical isolate 2019-nCoV/USA-WA1/2020 infected in African green monkey Vero E6 cells incubated for 48 hrs by CellTiter-Glo assay. In kind it is functional, organism-based. Particulars: Severe acute respiratory syndrome coronavirus 2, 2019-nCoV/USA-WA1/2020, Vero C1008, 48 h.
Series [25] is described as follows: Cytotoxicity against African green monkey Vero E6 cells infected with SARS CoV-2 clinical isolate 2019-nCoV/USA-WA1/2020 incubated for 48 hrs by CellTiter-Glo assay. It is filed as toxicity, cell-based, Vero C1008. Particulars: chlorocebus sabaeus.
Series [26] in a line: Oral bioavailability in CD1 mouse at 500 mg/kg administered as single dose by LC-MS/MS analysis. It is filed as ADME, organism-based. Particulars: in vivo.
The subject of series [27] is Middle East respiratory syndrome-related coronavirus. Description: Antiviral activity against […] infected in HAE cells incubated for 48 hrs by qRT-PCR analysis. In kind it is functional, organism-based.
The nature of series [28]: Half life in CD1 mouse at 50 mg/kg, po administered as single dose by LC-MS/MS analysis. In kind it is ADME, organism-based. Particulars: in vivo.

In series [1], `CC(=O)N[C@@H](CCc1nc2ccccc2s1)C(=O)N[C@@H](CN)C(=O)NCC(=O)NC/C=C/C(=O)O` displayed an IC50 of 10000 nM.

Molecule `CC(=O)N[C@@H](CCc1ccc(O)cc1)C(=O)N[C@@H](CN)C(=O)NCC(=O)NC/C=C/C(=O)O` gave an IC50 in series [1] of 10000 nM.

Regarding `O=C[C@H](C[C@@H]1CCNC1=O)NC(=O)[C@H](CC1CC1)NC(=O)c1cc2ccccc2[nH]1`, the half-life is 5.5 h in series [2], 7.6 h in series [3] and 4.4 h in [5]. For the same molecule, the values for the clearance in series [4], in series [6] and in series [12] were 17 mL/min/kg, 5.8 mL/min/kg and 4.01 mL/min/kg, respectively. Moreover, in the series with SARS-CoV-2 [7], the EC50 amounted to 520 nM. For the same molecule, the figures for the AUC(0-t) at 24 h in series [8] and in series [9] were 41500 ng·h/mL and 14900 ng·h/mL, respectively. Also, the CC50 in series [10] is > 100000 nM. In series [11], the Cmax was > 2360 ng/mL. Besides, in series [13], the bioavailability was > 85%. In addition, in series [14], the IC50 was 53 nM.

For `Nc1cccn([C@@H](CC2CC2)C(=O)N[C@@H](C[C@@H]2CCNC2=O)C(=O)C(=O)NCc2ccccc2)c1=O`, the EC50 with SARS-CoV-2 [15] was > 40000 nM. The IC50 in [16] was determined as 1340 nM.

`O=c1cc(-c2ccccc2)oc2cc(O)c(O)c(O)c12` [BAICALEIN]: in series [17], the CC50 at 3 h is > 200000 nM.

Regarding `O=C(O)[C@H]1O[C@@H](Oc2cc3oc(-c4ccccc4)cc(=O)c3c(O)c2O)[C@H](O)[C@@H](O)[C@@H]1O` [BAICALIN], in series [17], the CC50 at 3 h is > 200000 nM.

Consider `O=c1nc(NO)ccn1[C@@H]1O[C@H](CO)[C@@H](O)[C@H]1O` [N-HYDROXYCYTIDINE], for which the half-life in series [18] was 2.7 h; in series [20], 3.2 h; in series [28] it was 5.2 h. For the same molecule, the Drug uptake in series [19] was found to be 10 nmol/g. Moreover, the EC50 came out at 140 nM in the series on SARS-CoV, 80 nM with SARS-CoV-2 [22], 300 nM in the series on SARS-CoV-2 [24] and 24 nM in series [27]. The bioavailability was 43% in series [21], 56% in series [23] and 36% in series [26]. In addition, the cytotoxic concentration (CC50) at 48 h in series [25] was > 10000 nM.

(Values after ChEMBL document CHEMBL5136972, “Targeting SARS-CoV-2 Proteases and Polymerase for COVID-19 Treatment: State of the Art and Future Opportunities” (J Med Chem, 2022).)
